From ChEMBL document CHEMBL3885861, “Open TG-GATES”

Organism: Rattus norvegicus
Test: Open TG-GATES - Regimen: Single
Type: toxicity, organism-based, Sprague-Dawley
Parameters: regimen Single, gender Male, age 6 weeks
Settings: in vivo, po, 150 mg/kg, route gavage, dose level High; for APTT / Bas / Eos / Fbg / Hb / Ht / Lym / MCH / MCHC / MCV / Mono / Neu / PT / Plat / RBC / Ret / WBC: tissue Blood; for KIDNEY_L / KIDNEY_R / KIDNEY_TOTAL: tissue Kidney; for LIVER: tissue Liver; for A/G / ALP / ALT / AST / BUN / CRE / Ca / Cl / DBIL / GLC / IP / K / LDH / Na / PL / RALB / TBIL / TC / TG / TP / gamma-GTP: tissue Plasma

SMILES: CC(C)C(=O)Nc1ccc([N+](=O)[O-])c(C(F)(F)F)c1 [FLUTAMIDE]
- TERMINAL_BW (3 h): 210.6 g
- APTT (3 h): 19.7 s
- Bas (3 h): 0%
- Eos (3 h): 0.8%
- Fbg (3 h): 220.4 mg/dL
- Hb (3 h): 13.3 g/dL
- Ht (3 h): 38.7%
- Lym (3 h): 75%
- MCH (3 h): 21.5 pg
- MCHC (3 h): 34.4%
- MCV (3 h): 62.6 fL
- Mono (3 h): 3.6%
- Neu (3 h): 19.8%
- PT (3 h): 13 s
- Plat (3 h): 121.6 x10_4/uL
- RBC (3 h): 617.2 x10_4/ul
- Ret (3 h): 7.5%
- WBC (3 h): 89.1 x10_2/uL
- KIDNEY_L (3 h): 0.9 g
- KIDNEY_R (3 h): 0.9 g
- KIDNEY_TOTAL (3 h): 1.8 g
- LIVER (3 h): 9.3 g
- A/G (3 h): 1.4
- ALP (3 h): 936.4 IU/L
- ALT (3 h): 35.4 IU/L
- AST (3 h): 69.8 IU/L
- BUN (3 h): 9.4 mg/dL
- CRE (3 h): 0.4 mg/dL
- Ca (3 h): 10.6 mg/dL
- Cl (3 h): 102.8 meq/L
- DBIL (3 h): 0.1 mg/dL
- GLC (3 h): 212.8 mg/dL
- IP (3 h): 9.6 mg/dL
- K (3 h): 3.7 meq/L
- LDH (3 h): 158.4 IU/L
- Na (3 h): 140.8 meq/L
- PL (3 h): 152 mg/dL
- RALB (3 h): 3.4 g/dL
- TBIL (3 h): 0.2 mg/dL
- TC (3 h): 78 mg/dL
- TG (3 h): 77.4 mg/dL
- TP (3 h): 5.7 g/dL
- gamma-GTP (3 h): 1.4 IU/L
- TERMINAL_BW (6 h): 207.7 g
- APTT (6 h): 18.6 s
- Bas (6 h): 0%
- Eos (6 h): 0.6%
- Fbg (6 h): 213 mg/dL
- Hb (6 h): 13.4 g/dL
- Ht (6 h): 38.9%
- Lym (6 h): 79.6%
- MCH (6 h): 21.3 pg
- MCHC (6 h): 34.4%
- MCV (6 h): 62.1 fL
- Mono (6 h): 1.4%
- Neu (6 h): 17.8%
- PT (6 h): 12.7 s
- Plat (6 h): 127.8 x10_4/uL
- RBC (6 h): 626.6 x10_4/ul
- Ret (6 h): 7.3%
- WBC (6 h): 62.5 x10_2/uL
- KIDNEY_L (6 h): 0.9 g
- KIDNEY_R (6 h): 0.9 g
- KIDNEY_TOTAL (6 h): 1.9 g
- LIVER (6 h): 9.2 g
- A/G (6 h): 1.6
- ALP (6 h): 813 IU/L
- ALT (6 h): 32.4 IU/L
- AST (6 h): 63.8 IU/L
- BUN (6 h): 11.2 mg/dL
- CRE (6 h): 0.3 mg/dL
- Ca (6 h): 10.8 mg/dL
- Cl (6 h): 99.2 meq/L
- DBIL (6 h): 0.08 mg/dL
- GLC (6 h): 238.4 mg/dL
- IP (6 h): 9.7 mg/dL
- K (6 h): 3.8 meq/L
- LDH (6 h): 132.6 IU/L
- Na (6 h): 139.2 meq/L
- PL (6 h): 148.6 mg/dL
- RALB (6 h): 3.5 g/dL
- TBIL (6 h): 0.1 mg/dL
- TC (6 h): 84.4 mg/dL
- TG (6 h): 33.2 mg/dL
- TP (6 h): 5.7 g/dL
- gamma-GTP (6 h): 1 IU/L
- TERMINAL_BW (9 h): 207.4 g
- APTT (9 h): 19.7 s
- Bas (9 h): 0%
- Eos (9 h): 0.8%
- Fbg (9 h): 223.8 mg/dL
- Hb (9 h): 13.1 g/dL
- Ht (9 h): 38.5%
- Lym (9 h): 77.4%
- MCH (9 h): 21.6 pg
- MCHC (9 h): 34%
- MCV (9 h): 63.5 fL
- Mono (9 h): 3.8%
- Neu (9 h): 17%
- PT (9 h): 12.8 s
- Plat (9 h): 127.2 x10_4/uL
- RBC (9 h): 605.6 x10_4/ul
- Ret (9 h): 7.7%
- WBC (9 h): 69.1 x10_2/uL
- KIDNEY_L (9 h): 0.9 g
- KIDNEY_R (9 h): 0.9 g
- KIDNEY_TOTAL (9 h): 1.8 g
- LIVER (9 h): 8.7 g
- A/G (9 h): 1.6
- ALP (9 h): 711.8 IU/L
- ALT (9 h): 29.2 IU/L
- AST (9 h): 57.6 IU/L
- BUN (9 h): 10.2 mg/dL
- CRE (9 h): 0.4 mg/dL
- Ca (9 h): 10.5 mg/dL
- Cl (9 h): 102.8 meq/L
- DBIL (9 h): 0.07 mg/dL
- GLC (9 h): 220.6 mg/dL
- IP (9 h): 9.1 mg/dL
- K (9 h): 3.8 meq/L
- LDH (9 h): 149.4 IU/L
- Na (9 h): 139.8 meq/L
- PL (9 h): 165.4 mg/dL
- RALB (9 h): 3.4 g/dL
- TBIL (9 h): 0.1 mg/dL
- TC (9 h): 89.6 mg/dL
- TG (9 h): 73 mg/dL
- TP (9 h): 5.7 g/dL
- gamma-GTP (9 h): 0.8 IU/L
- TERMINAL_BW (24 h): 213.1 g
- APTT (24 h): 17.7 s
- Bas (24 h): 0%
- Eos (24 h): 1%
- Fbg (24 h): 218 mg/dL
- Hb (24 h): 13.1 g/dL
- Ht (24 h): 39.3%
- Lym (24 h): 82.4%
- MCH (24 h): 21.6 pg
- MCHC (24 h): 33.3%
- MCV (24 h): 65 fL
- Mono (24 h): 2.2%
- Neu (24 h): 13.6%
- PT (24 h): 12.8 s
- Plat (24 h): 129.1 x10_4/uL
- RBC (24 h): 605.4 x10_4/ul
- Ret (24 h): 6.8%
- WBC (24 h): 77.2 x10_2/uL
- KIDNEY_L (24 h): 1 g
- KIDNEY_R (24 h): 0.9 g
- KIDNEY_TOTAL (24 h): 1.9 g
- LIVER (24 h): 9.9 g
- A/G (24 h): 1.4
- ALP (24 h): 990.6 IU/L
- ALT (24 h): 32.6 IU/L
- AST (24 h): 69.6 IU/L
- BUN (24 h): 12.2 mg/dL
- CRE (24 h): 0.4 mg/dL
- Ca (24 h): 10.5 mg/dL
- Cl (24 h): 104.4 meq/L
- DBIL (24 h): 0.082 mg/dL
- GLC (24 h): 213 mg/dL
- IP (24 h): 7.5 mg/dL
- K (24 h): 3.8 meq/L
- LDH (24 h): 145.4 IU/L
- Na (24 h): 141.2 meq/L
- PL (24 h): 175.8 mg/dL
- RALB (24 h): 3.3 g/dL
- TBIL (24 h): 0.1 mg/dL
- TC (24 h): 107.4 mg/dL
- TG (24 h): 57.4 mg/dL
- TP (24 h): 5.7 g/dL
- gamma-GTP (24 h): 0.8 IU/L
